Source: ChEMBL document CHEMBL4017490, “Design, Synthesis, and Pharmacological Evaluation of Novel Multisubstituted Pyridin-3-amine Derivatives as Multitargeted Protein Kinase Inhibitors for the Treatment of Non-Small Cell Lung Cancer” (J Med Chem, 2017)

Columns and labels:
[1] = biological target: T1, Tyrosine-protein kinase Mer (Homo sapiens, UniProt Q12866); experiment: Inhibition of recombinant Mer (unknown origin) using poly (Glu,Tyr) 4:1 as substrate after 60 mins by ELISA
T1 sequence (Q12866 whole entry): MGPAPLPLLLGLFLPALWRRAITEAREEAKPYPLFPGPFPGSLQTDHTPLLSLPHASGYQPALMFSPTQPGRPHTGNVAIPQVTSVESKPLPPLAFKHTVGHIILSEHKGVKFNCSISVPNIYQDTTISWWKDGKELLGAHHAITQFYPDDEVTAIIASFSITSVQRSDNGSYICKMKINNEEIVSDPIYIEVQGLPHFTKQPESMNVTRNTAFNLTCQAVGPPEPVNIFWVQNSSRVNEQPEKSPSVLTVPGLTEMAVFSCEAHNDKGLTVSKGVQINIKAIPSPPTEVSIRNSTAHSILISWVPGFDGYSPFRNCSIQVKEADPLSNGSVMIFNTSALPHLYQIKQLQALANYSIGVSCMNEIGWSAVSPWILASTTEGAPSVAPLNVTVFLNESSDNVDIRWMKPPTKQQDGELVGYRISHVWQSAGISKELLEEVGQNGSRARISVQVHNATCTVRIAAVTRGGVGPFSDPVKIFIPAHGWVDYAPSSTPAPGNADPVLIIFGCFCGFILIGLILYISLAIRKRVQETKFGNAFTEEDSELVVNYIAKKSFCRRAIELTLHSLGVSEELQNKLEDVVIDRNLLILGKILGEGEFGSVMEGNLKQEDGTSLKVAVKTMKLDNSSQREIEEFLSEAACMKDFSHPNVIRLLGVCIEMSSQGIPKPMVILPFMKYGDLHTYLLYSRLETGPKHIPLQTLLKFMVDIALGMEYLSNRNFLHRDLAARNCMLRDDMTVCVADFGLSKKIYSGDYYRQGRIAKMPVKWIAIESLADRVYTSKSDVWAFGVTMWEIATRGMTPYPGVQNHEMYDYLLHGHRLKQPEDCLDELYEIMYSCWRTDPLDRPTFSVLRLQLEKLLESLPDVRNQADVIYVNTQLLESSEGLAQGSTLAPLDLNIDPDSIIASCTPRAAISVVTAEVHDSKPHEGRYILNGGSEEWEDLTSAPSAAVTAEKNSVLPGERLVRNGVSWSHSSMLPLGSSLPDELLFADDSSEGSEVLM

[2] = Half life in Sprague-Dawley rat at 20 mg/kg, po by LC-MS/MS method; format: ADME, organism-based; conditions: in vivo
[3] = Cmax in Sprague-Dawley rat at 10 mg/kg, iv by LC-MS/MS method; format: ADME, organism-based; design: dose 10 mg/kg, route intravenous; conditions: in vivo
[4] = biological target: Vascular endothelial growth factor receptor 1 (Homo sapiens, UniProt P17948); experiment: Inhibition of recombinant VEGFR-1 (unknown origin) using poly (Glu,Tyr) 4:1 as substrate after 60 mins by ELISA
[5] = Tmax in Sprague-Dawley rat at 10 mg/kg, iv by LC-MS/MS method; format: ADME, organism-based; conditions: in vivo
NCI-H1581 [6] = conditions: Homo sapiens
Description: Antitumor activity against human NCI-H1581 cells xenografted in po dosed nude mouse assessed as tumor growth inhibition administered as qd for 14 days measured twice per week during compound dosing

[7] = AUC (0 to t) in CD-1 mouse at 20 mg/kg, po by LC-MS/MS method; format: ADME, organism-based; conditions: in vivo
[8] = Half life in Sprague-Dawley rat at 10 mg/kg, iv by LC-MS/MS method; format: ADME, organism-based; conditions: in vivo
NCI-H1581 [9] = experiment: Antitumor activity against human NCI-H1581 cells xenografted in nude mouse assessed as tumor growth inhibition at 20 mg/kg, po qd administered for 14 days measured twice per week during compound dosing; format: functional; conditions: 336 h, read-out: TGI
[10] = AUC (0 to t) in Sprague-Dawley rat at 10 mg/kg, iv by LC-MS/MS method; format: ADME, organism-based; conditions: in vivo
[11] = AUC (0 to infinity) in Sprague-Dawley rat at 10 mg/kg, iv by LC-MS/MS method; format: ADME, organism-based; design: dose 10 mg/kg, time infinity, route intravenous; conditions: in vivo
[12] = biological target: T2, Tyrosine-protein kinase receptor UFO (Homo sapiens, UniProt P30530); experiment: Inhibition of recombinant AXL (unknown origin) using poly (Glu,Tyr) 4:1 as substrate after 60 mins by ELISA
T2 sequence (P30530 whole entry): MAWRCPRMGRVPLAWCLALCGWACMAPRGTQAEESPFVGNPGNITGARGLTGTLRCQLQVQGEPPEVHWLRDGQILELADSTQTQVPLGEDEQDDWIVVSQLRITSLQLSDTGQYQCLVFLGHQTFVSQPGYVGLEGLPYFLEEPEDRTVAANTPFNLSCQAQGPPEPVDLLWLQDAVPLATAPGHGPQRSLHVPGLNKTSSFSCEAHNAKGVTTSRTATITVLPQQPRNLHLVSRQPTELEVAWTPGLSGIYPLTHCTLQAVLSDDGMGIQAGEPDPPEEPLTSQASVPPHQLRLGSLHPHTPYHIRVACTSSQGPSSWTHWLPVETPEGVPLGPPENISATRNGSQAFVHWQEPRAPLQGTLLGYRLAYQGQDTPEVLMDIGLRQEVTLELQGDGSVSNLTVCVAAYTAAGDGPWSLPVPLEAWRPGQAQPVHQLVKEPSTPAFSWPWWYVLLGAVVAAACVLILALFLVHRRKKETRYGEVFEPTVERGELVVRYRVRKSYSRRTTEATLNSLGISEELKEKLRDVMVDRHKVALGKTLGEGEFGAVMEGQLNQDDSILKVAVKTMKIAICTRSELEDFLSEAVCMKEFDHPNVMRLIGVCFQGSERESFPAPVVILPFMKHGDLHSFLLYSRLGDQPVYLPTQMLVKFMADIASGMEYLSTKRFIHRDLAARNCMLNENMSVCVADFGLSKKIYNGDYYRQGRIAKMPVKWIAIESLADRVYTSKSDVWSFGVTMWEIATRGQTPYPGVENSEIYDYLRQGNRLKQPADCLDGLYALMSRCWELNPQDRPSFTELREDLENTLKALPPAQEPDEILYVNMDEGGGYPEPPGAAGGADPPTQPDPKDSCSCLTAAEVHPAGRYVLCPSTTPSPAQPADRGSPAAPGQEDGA

[13] = AUC (0 to infinity) in CD-1 mouse at 20 mg/kg, po by LC-MS/MS method; format: ADME, organism-based; design: dose 20 mg/kg, time infinity, route oral; conditions: in vivo
[14] = MRT in CD-1 mouse at 5 mg/kg, iv by LC-MS/MS method; format: ADME, organism-based; conditions: in vivo
Ephrin type-A receptor 2 = Ephrin type-A receptor 2 (Homo sapiens, UniProt P29317); experiment: Inhibition of recombinant EPH-A2 (unknown origin) using poly (Glu,Tyr) 4:1 as substrate after 60 mins by ELISA
[15] = AUC (0 to infinity) in Sprague-Dawley rat at 20 mg/kg, po by LC-MS/MS method; format: ADME, organism-based; design: dose 20 mg/kg, route oral, time infinity; conditions: in vivo
Mus musculus = experiment: Toxicity in nude mouse xenografted with human NCI-H1581 cells assessed as emaciation at 20 mg/kg, po qd administered for 14 days; format: organism-based; conditions: in vivo, 336 h
[16] = MRT in Sprague-Dawley rat at 20 mg/kg, po by LC-MS/MS method; format: ADME, organism-based; conditions: in vivo
[17] = Cmax in CD-1 mouse at 5 mg/kg, iv by LC-MS/MS method; format: ADME, organism-based; design: dose 5 mg/kg, route intravenous; conditions: in vivo

Ephrin type-A receptor 2, sequence (P29317 whole entry): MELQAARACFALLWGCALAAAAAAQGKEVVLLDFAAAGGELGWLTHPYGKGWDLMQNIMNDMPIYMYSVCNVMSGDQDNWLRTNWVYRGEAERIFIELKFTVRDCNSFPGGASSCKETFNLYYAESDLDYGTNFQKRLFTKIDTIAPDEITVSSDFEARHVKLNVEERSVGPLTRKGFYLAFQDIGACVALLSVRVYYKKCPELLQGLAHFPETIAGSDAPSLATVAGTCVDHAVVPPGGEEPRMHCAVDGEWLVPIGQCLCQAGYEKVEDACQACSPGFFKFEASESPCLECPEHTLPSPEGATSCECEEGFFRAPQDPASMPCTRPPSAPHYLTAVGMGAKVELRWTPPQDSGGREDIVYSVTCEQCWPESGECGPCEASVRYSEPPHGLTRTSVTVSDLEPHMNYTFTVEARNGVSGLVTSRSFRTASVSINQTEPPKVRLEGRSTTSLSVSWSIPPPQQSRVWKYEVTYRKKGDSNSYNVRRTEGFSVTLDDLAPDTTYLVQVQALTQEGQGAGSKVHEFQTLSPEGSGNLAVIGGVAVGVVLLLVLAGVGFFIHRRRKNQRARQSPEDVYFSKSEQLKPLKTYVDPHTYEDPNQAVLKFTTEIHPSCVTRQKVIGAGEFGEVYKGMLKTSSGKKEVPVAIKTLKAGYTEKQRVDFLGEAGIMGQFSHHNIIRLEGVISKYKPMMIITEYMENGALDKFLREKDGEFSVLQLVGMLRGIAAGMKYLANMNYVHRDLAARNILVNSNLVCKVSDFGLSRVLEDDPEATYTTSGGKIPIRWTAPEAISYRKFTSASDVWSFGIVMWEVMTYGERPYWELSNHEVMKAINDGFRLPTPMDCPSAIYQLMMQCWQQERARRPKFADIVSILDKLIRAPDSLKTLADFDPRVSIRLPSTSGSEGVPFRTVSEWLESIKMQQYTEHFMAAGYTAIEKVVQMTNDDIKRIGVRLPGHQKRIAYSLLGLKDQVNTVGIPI
Vascular endothelial growth factor receptor 1, sequence (P17948 whole entry): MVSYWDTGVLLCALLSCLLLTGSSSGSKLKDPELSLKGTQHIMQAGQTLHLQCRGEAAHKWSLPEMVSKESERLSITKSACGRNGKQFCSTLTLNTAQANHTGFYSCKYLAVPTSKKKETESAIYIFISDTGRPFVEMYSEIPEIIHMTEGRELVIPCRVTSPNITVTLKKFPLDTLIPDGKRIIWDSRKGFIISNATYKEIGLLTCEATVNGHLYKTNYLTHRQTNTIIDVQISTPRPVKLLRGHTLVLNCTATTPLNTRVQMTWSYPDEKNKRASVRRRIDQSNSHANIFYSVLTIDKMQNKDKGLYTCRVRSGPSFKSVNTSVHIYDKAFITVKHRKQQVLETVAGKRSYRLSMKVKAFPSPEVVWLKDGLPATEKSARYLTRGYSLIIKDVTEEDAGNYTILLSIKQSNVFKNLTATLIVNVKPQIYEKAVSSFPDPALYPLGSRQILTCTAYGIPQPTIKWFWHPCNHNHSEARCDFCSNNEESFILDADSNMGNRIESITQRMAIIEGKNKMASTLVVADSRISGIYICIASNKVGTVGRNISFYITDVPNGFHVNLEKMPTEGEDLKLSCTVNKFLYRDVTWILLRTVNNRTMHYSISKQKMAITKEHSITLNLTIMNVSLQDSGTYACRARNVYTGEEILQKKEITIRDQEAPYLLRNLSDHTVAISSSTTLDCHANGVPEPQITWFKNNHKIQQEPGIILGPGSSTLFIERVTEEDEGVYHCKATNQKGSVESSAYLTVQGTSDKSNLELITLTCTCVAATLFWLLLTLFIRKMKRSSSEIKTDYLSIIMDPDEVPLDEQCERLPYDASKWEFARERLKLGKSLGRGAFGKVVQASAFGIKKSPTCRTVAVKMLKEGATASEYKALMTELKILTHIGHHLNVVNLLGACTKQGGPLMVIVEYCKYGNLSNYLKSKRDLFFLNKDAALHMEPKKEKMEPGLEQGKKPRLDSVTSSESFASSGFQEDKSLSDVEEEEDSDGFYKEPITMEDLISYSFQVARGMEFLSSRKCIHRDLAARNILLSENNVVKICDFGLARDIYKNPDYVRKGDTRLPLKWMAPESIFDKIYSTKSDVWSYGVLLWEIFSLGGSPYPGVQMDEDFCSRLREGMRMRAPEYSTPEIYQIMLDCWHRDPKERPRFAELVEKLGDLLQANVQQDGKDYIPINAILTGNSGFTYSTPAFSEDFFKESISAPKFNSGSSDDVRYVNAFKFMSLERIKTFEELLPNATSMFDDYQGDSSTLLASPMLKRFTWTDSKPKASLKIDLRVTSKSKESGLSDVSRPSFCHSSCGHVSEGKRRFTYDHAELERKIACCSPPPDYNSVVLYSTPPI

SMILES | IC50 [1] [nM] | half-life [2] [h] | Cmax [3] [ng/mL] | IC50 [4] [nM] | Tmax [5] [h] | TGI (NCI-H1581 [6]) | AUC(0-t) [7] [ng·h/mL] | half-life [8] [h] | inhibition in vivo at 20 mg/kg (NCI-H1581 [9]) [%] | AUC(0-t) [10] [ng·h/mL] | AUC(0-inf) [11] [ng·h/mL] | IC50 [12] [nM] | AUC(0-inf) [13] [ng·h/mL] | MRT [14] [h] | IC50 (Ephrin type-A receptor 2) [nM] | AUC(0-inf) [15] [ng·h/mL] | Activity (Mus musculus) | MRT [16] [h] | Cmax [17] [ng/mL]
Cc1n[nH]c2ccc(-c3cc(N[C@@H](CO)c4ccccc4)cnc3-c3cc(F)ccc3O)cc12 | 36.9 | 8 | 6540 | 1 to 10 | 0.25 | Dose-dependent effect | 2400 | 2.39 | 66.1 | 13700 | 13800 | > 1000 | 2410 | 3.74 | > 10 | 18700 | Toxic | 6.72 | 106
Cc1n[nH]c2ccc(-c3cc(N[C@@H](CO)c4ccccc4)cnc3-c3ccc(F)cc3O)cc12 | 7.1 | – | – | > 10 | – | – | – | – | – | – | – | > 1000 | – | – | > 100 | – | – | – | –
Cc1n[nH]c2ccc(-c3cc(N[C@@H](CO)c4ccccc4)cnc3-c3cc(Cl)ccc3O)cc12 | 30.9 | – | – | > 10 | – | – | – | – | – | – | – | > 1000 | – | – | > 10 | – | – | – | –
OC[C@H](Nc1cnc(-c2cc(Cl)ccc2O)c(-c2ccc3cnccc3c2)c1)c1ccccc1 | 4.4 | – | – | > 10 | – | – | – | – | – | – | – | > 1000 | – | – | > 100 | – | – | – | –
